According to patent publication US20180368427A1, “Method of Reducing Spoilage in Harvested Produce During Storage and Shipping” (Apeel Technology, Inc., priority 2016, published 2018):

Tested on: strawberries
Assay: Average daily mass loss rate of coated strawberries stored at low relative humidity
Details: over 4 days, 10 mg/mL in ethanol, spray coated, 23-27° C., 40-55% humidity (FIG. 7A), listed as pure PA-2G formulation (712)
Method: FIG. 7A is a graph showing average daily mass loss rates for coated and uncoated harvested strawberries stored at low relative humidity levels for 4 days. The coating agents included various mixtures of PA-1G and PA-2G, as detailed below. Each bar in the graph represents average daily mass loss rates for a group of 15 strawberries. The strawberries corresponding to bar 702 were untreated (control group). The strawberries corresponding to bar 704 were treated with a solution for which the coating agent was substantially pure PA-1G. The strawberries corresponding to bar 706 were treated with a solution for which the coating agent was 75% PA-1G and 25% PA-2G by mass. The strawberries corresponding to bar 708 were treated with a solution for which the coating agent was 50% PA-1G and 50% PA-2G by mass. The strawberries corresponding to bar 710 were treated with a solution for which the coating agent was 25% PA-1G and 75% PA-2G by mass. The strawberries corresponding to bar 712 were treated with a solution for which the coating agent was substantially pure PA-2G. […] FIG. 7A is a graph showing average daily mass loss rates, measured over the course of 4 days, of the untreated strawberries and of the strawberries coated with one of the five solutions described above. […]

For `CCCCCCCCCCCCCCCC(=O)OC(CO)CO` [PA-2G, 1,3-dihydroxypropan-2-yl palmitate], the “average daily mass loss rate” value was 6.1%.
